System: HSV-1 induced IFNβ protein in mouse serum
Assay: IFNβ protein in serum of HSV-1 infected mice (ELISA)
Assay type: in vivo
Details: wild mouse, compound by tail vein injection three times, HSV-1 by tail vein, serum collected in 6 hours, FIG. 3
Source text: Influence of the compositae type cyclopeptide compound Astin C (3) prepared in example 1 on expression of IFNβ protein in HSV-1 induced mouse serum.
The experimental principle: Expression of the IFNβ protein in the body is a mark event of innate immunity resisting infection reaction, the expressed IFNβ can activate the signal transduction channel of the interferon receptor (IFNR) to induce expression of cell factors and inflammatory factors such as interferon stimulated genes, and finally, the invading pathogenic microorganisms are eliminated by recruiting NK cells or further activating molecular mechanisms such as adaptive immune response. Therefore, after the DNA virus HSV-1 infects a mouse, the activating condition of the innate anti-infection immune response of the body can be reflected by detecting the expression quantity of IFN-β of mouse serum, so that influence of the compound on the innate anti-infection immune reaction of the body is evaluated.
The experimental method: (1) Establishment of an HSV-1 infected mouse model: A 6-8 week old wild mouse was taken; 100 μL of HSV-1, the titer of which is 1×10^7, was injected into a mouse body by way of tail vein injection; and serum was collected in 6 hours for a follow-up experiment. […]

Q: `CCC1NC(=O)C2C(Cl)C(Cl)CN2C(=O)C(CC)NC(=O)CC(c2ccccc2)NC(=O)C(CO)NC1=O` (stereo not shown) [Astin C] was tested. Which “HSV-1 induced IFNβ content in the mouse serum” value did it give?
A: reduce the HSV-1 induced IFNβ content in the mouse serum obviously

Source: patent US20200222497A1, “USE OF COMPOSITAE-TYPE CYCLIC PEPTIDE COMPOUND AS CGAS-STING SIGNALLING PATHWAY INHIBITOR” (CHINA PHARMACEUTICAL UNIVERSITY, priority 2017, published 2020)
